# Results reported in patent US11220496B2, “Compounds and method for treating autoimmune diseases” (Rigel Pharmaceuticals, Inc., priority 2013, dated 2022).
# Counter-ions that a name gives are not always drawn.
# Experiment: Human primary T-cell proliferation stimulated by IL-2 (CellTiter-Glo)
# Type: cell-based
# Conditions: primary human T-cells, IL-2 stimulated proliferation, 72 hours, ATP readout; read-out: Activity (IC50, inhibition of JAK3 activity)
# Description: One means of assaying for such inhibition is detection of the effect of the 2,4-substituted pyrimidinediamine compounds on the upregulation of downstream gene products. For example, the activity of the disclosed compounds may be characterized by assaying the effect of the 2,4-substituted pyrimidinediamine compounds described herein on the proliferative response of primary human T-cells. In this assay, primary human T-cells derived from peripheral blood and pre-activated through stimulation of the T-cell receptor and CD28, proliferate in culture in response to the cytokine Interleukin-2 (IL-2). This proliferative response is dependent on the activation of JAK1 and JAK3 tyrosine kinases, which phosphorylate and activate the transcription factor Stat-5. The primary human T-cells are incubated with the 2,4-substituted pyrimidinediamine compounds in the presence of IL-2 for 72 hours and at the assay endpoint intracellular ATP concentrations are measured to assess cell viability. A reduction in cell proliferation compared to control conditions is indicative of inhibition of the JAK kinase pathway.
# Primary human T-cells derived from peripheral blood and pre-activated through stimulation of the T-cell receptor and CD28, proliferate in vitro in response to the cytokine Interleukin-2 (IL-2). This proliferative response is dependent on the activation of JAK-1 and JAK-3 tyrosine kinases, which phosphorylate and activate the transcription factor Stat-5.
# Human primary T-cells were prepared as follows. Whole blood was obtained from a healthy volunteer, mixed 1:1 with PBS, layered on to Ficoll Hypaque (Amersham Pharmacia Biotech, Piscataway, N.J., Catalog #17-1440-03) in 2:1 blood/PBS:ficoll ratio and centrifuged for 30 min at 4° C. at 1750 rpm. The lymphocytes at the serum: ficoll interface were recovered and washed twice with 5 volumes of PBS. The cells were resuspended in Yssel's medium (Gemini Bio-products, Woodland, Calif., Catalog #400-103) containing 40 U/mL recombinant IL2 (R and D Systems, Minneapolis, Minn., Catalog #202-IL (20 μg)) and seeded into a flask pre-coated with 1 μg/mL anti-CD3 (BD Pharmingen, San Diego, Calif., Catalog #555336) and 5 μg/mL anti-CD28 (Immunotech, Beckman Coulter of Brea Calif., Catalog #IM1376). The primary T-cells were stimulated for 3-4 days, then transferred to a fresh flask and maintained in RPMI with 10% FBS and 40 U/mL IL-2.
# The day prior to the assay set up, primary T-cells were centrifuged and resuspended in fresh RPMI with 10% FBS but without IL-2 and starved overnight. For the assay, the primary T-cells were centrifuged and resuspended Yssel's medium at 2×10^6 cells/mL. 50 μL of cell suspension containing 80 U/mL IL-2 was added to each well of a flat bottom 96 well black plate. For the unstimulated control, IL-2 was omitted from the last column on the plate. Compounds were serially diluted in dimethyl sulfoxide (DMSO, 99.7% pure, cell culture tested, Sigma-Aldrich, St. Louis, Mo., Catalog No. D2650) from 5 mM in 3-fold dilutions, and then diluted 1:250 in Yssel's medium. 50 μL of 2× compound was added per well in duplicate and the cells were allowed to proliferate for 72 hours at 37° C.
# Proliferation was measured using CellTiter-Glo® Luminescent Cell Viability Assay (Promega), which determines the number of viable cells in culture based on quantitation of the ATP present, as an indicator of metabolically active cells. The substrate was thawed and allowed to come to ambient temperature. After mixing the Cell Titer-Glo reagent and diluent together, 100 μL was added to each well. The plates were mixed on an orbital shaker for two minutes to induce lysis and incubated at ambient temperature for an additional ten minutes to allow the signal to equilibrate. Detection was performed using a Wallac Victor2 1420 multilabel counter purchased from Perkin Elmer, Shelton, Conn.
row,IC50,SMILES
1,< 0.5 µM,"Cc1cnc(Nc2cc(C)c(C)c(C)c2)nc1Nc1ccc2oc(=O)[nH]c2c1 [Compound A1, N2-(3,4,5-trimethyl)phenyl-5-methyl-N4-(2-oxo-2,3-dihydro-1,3-benzoxazol-5-yl)-2,4-pyrimidinediamine]"
2,< 0.5 µM,"Cc1cnc(Nc2ccc(C(=O)NC3CCC3)cc2)nc1Nc1ccc2oc(=O)[nH]c2c1 [Compound A5, N-cyclobutyl-4-[5-methyl-4-(2-oxo-2,3-dihydro-benzooxazol-5-ylamino)-pyrimidin-2-ylamino]-benzamide]"
3,< 0.5 µM,"COc1cc(Nc2ncc(C)c(Nc3ccc4oc(=O)[nH]c4c3)n2)cc(Cl)c1OC [Compound A11, 5-(2-(3-chloro-4,5-dimethoxyphenylamino)-5-methylpyrimidin-4-ylamino)benzo[d]oxazol-2(3H)-one]"
4,< 0.5 µM,"Cc1cnc(Nc2ccc3cnoc3c2)nc1Nc1ccc2oc(=O)[nH]c2c1 [Compound A12, 5-(2-(benzo[d]isoxazol-6-ylamino)-5-methylpyrimidin-4-ylamino)benzo[d]oxazol-2(3H)-one]"
5,0.5 to 5 µM,"Cc1cnc(Nc2cc(C)c(F)c(C)c2)nc1Nc1ccc2oc(=O)n(COP(=O)(O)O)c2c1 [Compound A18, N2-(3,5-dimethyl-4-fluoro)phenyl-5-methyl-N4-[3-(phosphonooxy)methyl-2-oxo-2,3-dihydro-1,3-benzoxazol-5-yl]-2,4-pyrimidinediamine bis-sodium salt]"

# Second part, the compound before the results:
row,SMILES,IC50
1,"Cc1cnc(Nc2ccc(C(=O)Nc3ccccc3)cc2)nc1Nc1ccc2oc(=O)[nH]c2c1 [Compound A2, 4-[5-methyl-4-(2-oxo-2,3-dihydro-benzoxazol-5-ylamino)-pyrimidin-2-ylamino]-N-phenyl-benzamide]",< 0.5 µM
2,"Cc1cnc(Nc2ccc(C(N)=O)cc2)nc1Nc1ccc2oc(=O)[nH]c2c1 [Compound A3, N4-(benzo[d]oxazol-2(3H)-on-5-yl)-N2-(4-aminocarbonylphenyl)-5-methylpyrimidine-2,4-diamine]",< 0.5 µM
3,"Cc1cc(CF)cc(Nc2ncc(C)c(Nc3ccc4oc(=O)[nH]c4c3)n2)c1 [Compound A7, 5-(2-(3-(fluoromethyl)-5-methylphenylamino)-5-methylpyrimidin-4-ylamino)benzo[d]oxazol-2(3H)-one]",< 0.5 µM
4,"Cc1ccc(Nc2ncc(C)c(Nc3ccc4oc(=O)[nH]c4c3)n2)cc1F [Compound A8, N2-(3-fluoro-4-methyl)phenyl-5-methyl-N4-(2-oxo-2,3-dihydro-1,3-benzoxazol-5-yl)-2,4-pyrimidinediamine]",< 0.5 µM
5,"Cc1ccc(Nc2ncc(C)c(Nc3ccc4oc(=O)[nH]c4c3)n2)cc1C [Compound A10, 5-[2-(3,4-dimethyl-phenylamino)-5-methyl-pyrimidin-4-ylamino]-3H-benzooxazol-2-one]",< 0.5 µM
6,"Cc1cnc(Nc2cc(C)c(F)c(C)c2)nc1Nc1ccc2oc(=O)[nH]c2c1 [Compound A14, N2-(3,5-dimethyl-4-fluoro)phenyl-5-methyl-N4-(2-oxo-2,3-dihydro-1,3-benzoxazol-5-yl)-2,4-pyrimidinediamine]",< 0.5 µM
7,"COc1cc(Nc2ncc(C)c(Nc3ccc4oc(=O)n(COP(=O)(O)O)c4c3)n2)cc(C(F)(F)F)c1 [Compound A15, N2-(3-methoxy-5-trifluoromethyl)phenyl-5-methyl-N4-[3-(phosphonooxy)methyl-2-oxo-2,3-dihydro-1,3-benzoxazol-5-yl]-2,4-pyrimidinediamine bis-sodium salt]",0.5 to 5 µM
8,"COc1cc(Nc2ncc(C)c(Nc3ccc4oc(=O)n(COP(=O)(O)O)c4c3)n2)cc(C)c1F [Compound A16, Sodium (5-(2-(4-fluoro-3-methoxy-5-methylphenylamino)-5-methylpyrimidin-4-ylamino)-2-oxobenzo[d]oxazol-3(2H)-yl)methyl phosphate]",0.5 to 5 µM
9,"Cc1cnc(Nc2cc(C)c(C)c(C)c2)nc1Nc1ccc2oc(=O)n(COP(=O)(O)O)c2c1 [Compound A17, 5-methyl-N4-[3-(phosphonooxy)methyl-2-oxo-2,3-dihydro-1,3-benzoxazol-5-yl]-N2-(3,4,5-trimethyl)phenyl-2,4-pyrimidinediamine bis-sodium salt]",0.5 to 5 µM
10,"COc1cc(Nc2ncc(C)c(Nc3ccc4oc(=O)[nH]c4c3)n2)cc(C)c1F [Compound I-432, 5-(2-(4-fluoro-3-methoxy-5-methylphenylamino)-5-methylpyrimidin-4-ylamino)benzo[d]oxazol-2(3H)-one]",< 0.5 µM
